Legend:
[1] = test system: Septoria tritici; assay: Microplate test of biocidal effect on wheat Septoria blotch (Experimental Example 4); type: cell-based; settings: Zymoseptoria tritici, 240 h; % mycelium growth inhibition, absorbance 550 nm, 20 degrees C. for about 10 days; read-out: activity level (EC80)
How it was run: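 Septoria tritici spores (1×10^6 cells/ml suspension, diluted 100-fold in PD medium) incubated with compound added from DMSO stock at 100× test concentration. Percent mycelial growth inhibition computed from absorbance of treated versus untreated wells.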

[2] = test system: Septoria tritici; assay: Assay for fungicidal effect on Septoria tritici, plate medium 1.25 mg/L (Experimental Example 9); type: cell-based; settings: Zymoseptoria tritici, read-out: growth inhibition grade
Experimental: Each inventive compound was dissolved in 2 ml of dimethyl sulfoxide. 0.6 ml of this solution was added to 60 nil of a PDA medium (potato dextrose agar medium) at about 60 degrees C., which was mixed thoroughly in a 100-ml conical flask, and poured into a dish, where it was solidified, thereby obtaining a plate medium containing the inventive compound at 50 mg/L and 5 mg/L. On the other hand, a subject microorganism previously cultured on a plate medium was cut out using a cork borer whose diameter was 4 mm, and inoculated to the test compound-containing plate medium described above. […] The growth degree of the microorganism on the test compound-containing plate medium thus observed was compared with the growth degree of the microorganism in the untreated group, and % mycelial growth inhibition was calculated by the following equation. R=100(dc−dt)/dc wherein R=% mycelial extension inhibition, dc=flora diameter in untreated plate, dt=flora diameter in treated plate. The results obtained as described above were evaluated as one of the 5 grades according to the following criteria. […] In this Experimental Example, the fungicidal effects of the inventive compounds on Septoria tritici were examined by the methods described in the Experimental Example 5. In this Experimental Example, the inventive compounds were diluted at 1.25 mg/L.

[3] = test system: Puccinia recondita; assay: Efficacy test against wheat brown rust, 1 mg/L (Experimental Example 10); type: in vivo; settings: 1 g/ha (1 mg/L sprayed at 1,000 L/ha)
[4] = test system: Cladosporium sp.; assay: Plate medium assay, industrial material deteriorating microorganism, Cladosporium (Experimental Example 5); type: cell-based; settings: treatment at 50 mg/l, PDA plate medium, read-out: growth inhibition grade
Experimental: (§1) In this Experimental Example, the fungicidal effects of the inventive compounds on various phytopathogenic fungi for plants and hazardous microorganism for industrial materials were examined by the methods described below. Each inventive compound was dissolved in 2 ml of dimethyl sulfoxide. 0.6 ml of this solution was added to 60 nil of a PDA medium (potato dextrose agar medium) at about 60 degrees C., which was mixed thoroughly in a 100-ml conical flask, and poured into a dish, where it was solidified, thereby obtaining a plate medium containing the inventive compound at 50 mg/L and 5 mg/L. On the other hand, a subject microorganism previously cultured on a plate medium was cut out using a cork borer whose diameter was 4 mm, and inoculated to the test compound-containing plate medium described above. […] The growth degree of the microorganism on the test compound-containing plate medium thus observed was compared with the growth degree of the microorganism in the untreated group, and % mycelial growth inhibition was calculated by the following equation. R=100(dc-dt)/dc wherein R=% mycelial extension inhibition, dc=flora diameter in untreated plate, dt=flora diameter in treated plate. The results obtained as described above were evaluated as one of the 5 grades according to the following criteria.

[5] = test system: Aspergillus sp.; assay: Plate medium assay, industrial material deteriorating microorganism, Aspergillus (Experimental Example 5); type: cell-based; settings: treatment at 50 mg/l, PDA plate medium, read-out: growth inhibition grade
Experimental: as §1

[6] = test system: Puccinia recondita; assay: Efficacy test against wheat brown rust, 100 mg/L and 10 mg/L (Experimental Example 2); type: in vivo; settings: nine to 14 days after inoculation; for efficacy compared with compound (1): 10 mg/L sprayed at 1,000 L/ha; for pest or weed control at 100 µg/mL: Puccinia recondita, 336 h, 100 mg/L sprayed at 1,000 L/ha, read-out: Protective value
Experimental: Onto a wheat plant (variety: NORIN No. 61) grown to the two-leaf phase using a square plastic pot (6 cm×6 cm), a wettable formulation such as Formulation Example 1 which was diluted and suspended in water at a certain concentration (100 mg/L and 10 mg/L) was sprayed at a rate of 1,000 L/ha. The sprayed leaves were air-dried, and inoculated with spore suspension of Puccinia recondita (adjusted at 200 spores/vision, […] was added at 60 ppm) by spraying, and kept at 25 degrees C. and a high humidity for 48 hours. Thereafter, the plant was kept in a greenhouse. Nine to 14 days after inoculation, the wheat brown rust lesion degree was investigated, and the protective value was calculated by the following equation. Protective value (%)=(1-lesion degree in sprayed plot/lesion degree in unsprayed plot)×100

[7] = test system: Fusarium graminearum; assay: whole plant or invertebrate; type: in vivo; settings: in Triticum aestivum, 168 h, read-out: Protective value
[8] = test system: Aureobasidium sp.; assay: Plate medium assay, industrial material deteriorating microorganism, Aureobasidium (Experimental Example 5); type: cell-based; settings: treatment at 50 mg/l, PDA plate medium, read-out: growth inhibition grade
Experimental: as §1

[9] = test system: Penicillium sp.; assay: Plate medium assay, industrial material deteriorating microorganism, Penicillium (Experimental Example 5); type: cell-based; settings: treatment at 50 mg/l, PDA plate medium, read-out: growth inhibition grade
Experimental: as §1

[10] = test system: Coriolus versicolor; assay: Plate medium assay, wood denaturing microorganism Kawaratake (Experimental Example 5); type: cell-based; settings: Trametes versicolor; treatment at 50 mg/l, PDA plate medium; read-out: growth inhibition grade
Experimental: as §1

[11] = test system: Mucor sp.; assay: Plate medium assay, industrial material deteriorating microorganism, Mucor (Experimental Example 5); type: cell-based; settings: treatment at 50 mg/l, PDA plate medium, read-out: growth inhibition grade
Experimental: as §1

[12] = test system: Botrytis cinerea; assay: Efficacy test against cucumber gray mold (Experimental Example 1); type: in vivo; settings: 96 h, four days after inoculation, read-out: Protective value; for pest or weed control at 50 µg/mL: 50 mg/L sprayed at 1,000 L/ha; for pest or weed control at 100 µg/mL: 100 mg/L sprayed at 1,000 L/ha
Experimental: Onto a cucumber (variety:SHARP1) plant in its cotyledon phase grown using a square plastic pot (6 cm×6 cm), a wettable formulation such as Formulation Example 1 which was diluted and suspended in water at a certain concentrations (100 mg/L and 50 mg/L) was sprayed at a rate of 1,000 L/ha. The sprayed leaves were air-dried, and loaded with a paper disc (8 mm in diameter) soaked in a spore suspension of Botrytis cinerea, and kept at 20 degrees C. and a high humidity. Four days after inoculation, the cucumber gray mold lesion degree was investigated, and the protective value was calculated by the following equation. Protective value (%)=(1−mean lesion degree in sprayed plot/mean lesion degree in unsprayed plot)×100

[13] = test system: Curvularia sp.; assay: Plate medium assay, industrial material deteriorating microorganism, Curvularia (Experimental Example 5); type: cell-based; settings: treatment at 50 mg/l, PDA plate medium, read-out: growth inhibition grade
Experimental: as §1

[14] = test system: Tyromyces palustris; assay: Plate medium assay, wood denaturing microorganism Oouzuratake (Experimental Example 5); type: cell-based; settings: treatment at 50 mg/l, PDA plate medium; read-out: growth inhibition grade
Experimental: as §1

Row | SMILES | EC80 [1] | inhibition at 1.25 µg/mL [2] | lesion degree [3] | inhibition at 50 µg/mL [4] | inhibition at 50 µg/mL [5] | efficacy compared with compound (1) [6] | pest or weed control at 100 µg/mL [6] | pest or weed control at 100 µg/mL [7] | pest or weed control at 500 µg/mL [7] | inhibition at 50 µg/mL [8] | inhibition at 50 µg/mL [9] | inhibition at 50 µg/mL [10] | inhibition at 50 µg/mL [11] | pest or weed control at 50 µg/mL [12] | pest or weed control at 100 µg/mL [12] | inhibition at 50 µg/mL [13] | inhibition at 50 µg/mL [14]
1 | C[C@]1(CCl)CC[C@@H](Cc2ccc(Cl)cc2)[C@]1(O)Cn1cncn1 (racemic) [Compound I-1, (1RS,2SR,5SR)-5-(4-chlorobenzyl)-2-chloromethyl-2-methyl-1-(1H-1,2,4-triazol-1-ylmethyl)cyclopentanol] | ≤ 0.2 µg/mL | > 80% | 0.5 (Less than 1%) | 60 to 80% | 60 to 80% | higher efficacy than that of compound (1) | ≥ 90% | ≥ 80% | ≥ 90% | 60 to 80% | 60 to 80% | 60 to 80% | 60 to 80% | ≥ 80% | ≥ 80% | 60 to 80% | 60 to 80%
2 | C[C@]1(CCl)CC[C@@H](Cc2ccc(F)cc2)[C@]1(O)Cn1cncn1 (racemic) [Compound I-77, (1RS,2SR,5SR)-2-chloromethyl-5-(4-fluorobenzyl)-2-methyl-1-(1H-1,2,4-triazol-1-ylmethyl)cyclopentanol] | ≤ 0.2 µg/mL | > 80% | 0.5 (Less than 1%) | 60 to 80% | 60 to 80% | higher efficacy than that of compound (1) | ≥ 90% | ≥ 80% | ≥ 90% | 60 to 80% | 60 to 80% | 60 to 80% | 60 to 80% | ≥ 80% | ≥ 80% | 60 to 80% | 60 to 80%

Reference: patent US9145351B2, “Azole derivatives, methods for producing the same, intermediate thereof, agro-horticultural agents” (KUREHA CORPORATION, priority 2009, dated 2015)
